Entries after “also recorded” stand apart in the source; their conditions may differ.
How the values were obtained:
Syrian golden hamsters = assay: Free choice alcohol drinking in Syrian golden hamsters with daily s.c. drug treatment; conditions: for body weight, change from baseline: 9-day treatment period; for alcohol consumption during post-hoc period: post-hoc: CLOZ animals 2 days lower dose then 22 days vehicle, HAL animals 0.6, 0.8, then 1 mg/kg over 15 days
golden hamster = conditions: cited from earlier work
animals = conditions: cited from earlier work

For `CN1CCN(C2=Nc3cc(Cl)ccc3Nc3ccccc32)CC1` [CLOZ, clozapine], the “body weight, change from baseline” value (Syrian golden hamsters) was “lost weight”, the “time to onset of decrease in alcohol drinking after first injection” value (Syrian golden hamsters; first CLOZ injection 2 mg/kg s.c., treatment day #2) was no more than 27 h and the “alcohol consumption, % of baseline” value (Syrian golden hamsters; treatment period, by day #6, after four days of 4 mg/kg/day CLOZ s.c.) was 10 % of baseline.
In the case of `O=c1c(-c2ccc(O)cc2)coc2cc(O[C@@H]3O[C@H](CO)[C@@H](O)[C@H](O)[C@H]3O)ccc12` [Daidzin], the alcohol drinking (golden hamster) is listed as “decreases alcohol drinking”.
For `O=C(CCCN1CCC(O)(c2ccc(Cl)cc2)CC1)c1ccc(F)cc1` [HAL, haloperidol], the “body weight, change from baseline” value (Syrian golden hamsters) was “stayed the same”, the “alcohol drinking, change during treatment period” value (Syrian golden hamsters; 9-day treatment: CLOZ 2 then 4 mg/kg, HAL 0.2 then 0.4 mg/kg, s.c. daily) was “unchanged” and the “alcohol use over full 24 days of treatment” value (Syrian golden hamsters; HAL dose ranging from 0.2 mg/kg to 1 mg/kg, including 11 days at highest dose) was “no evidence of a decrease in alcohol use”. For the same molecule, the “alcohol consumption during post-hoc period” value (Syrian golden hamsters) was “did not change; also recorded: no change in alcohol drinking” and the “alcohol consumption during post-hoc period” value (Syrian golden hamsters; listed as haloperidol) was “no decrease in drinking”.
For `C=CCN1CC[C@]23c4c5ccc(O)c4O[C@H]2C(=O)CC[C@@]3(O)[C@H]1C5` [naloxone], the alcohol consumption (animals) is given as “inhibit alcohol consumption”.
In the case of `O=C1CC[C@@]2(O)[C@H]3Cc4ccc(O)c5c4[C@@]2(CCN3CC2CC2)[C@H]1O5` [naltrexone], the alcohol consumption (animals) is listed as “inhibit alcohol consumption”.
In the case of `CN[C@H]1CC[C@@H](c2ccc(Cl)c(Cl)c2)c2ccccc21` [sertraline], the alcohol consumption (animals) is given as “inhibit alcohol consumption”.
